This note sets out measurements from ChEMBL document CHEMBL1143209, “Ohioensins F and G: protein tyrosine phosphatase 1B inhibitory benzonaphthoxanthenones from the Antarctic moss Polytrichastrum alpinum” (Bioorg Med Chem Lett, 2008).

Test [1] deals with T1, Tyrosine-protein phosphatase non-receptor type 1 (Homo sapiens, UniProt P18031).
T1 sequence (P18031 whole entry): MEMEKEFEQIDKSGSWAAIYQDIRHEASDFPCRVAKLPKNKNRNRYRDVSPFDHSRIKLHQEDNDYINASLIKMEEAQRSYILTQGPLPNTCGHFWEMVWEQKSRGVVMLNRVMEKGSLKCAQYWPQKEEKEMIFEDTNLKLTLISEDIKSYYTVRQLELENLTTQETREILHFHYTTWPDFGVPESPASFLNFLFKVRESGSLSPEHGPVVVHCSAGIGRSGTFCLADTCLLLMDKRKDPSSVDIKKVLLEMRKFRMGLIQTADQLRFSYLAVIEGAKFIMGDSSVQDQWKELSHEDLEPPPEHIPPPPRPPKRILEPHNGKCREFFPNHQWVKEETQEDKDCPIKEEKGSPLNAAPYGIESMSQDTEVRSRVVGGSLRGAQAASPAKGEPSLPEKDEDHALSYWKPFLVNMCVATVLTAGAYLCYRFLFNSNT
The experiment in a line: Inhibition of human recombinant PTP1B.

The target of test [2] is T1, Tyrosine-protein phosphatase non-receptor type 1. The experiment in a line: Inhibition of human recombinant PTP1B by Lineweaver-Burke plot.

For orientation: IC50 means the concentration that gives 50% inhibition. On to `O=C1C[C@@H]2c3ccccc3O[C@H]3c4cc(O)ccc4-c4c(O)cc(O)c1c4[C@H]23` [OHIOENSIN A], for which the IC50 in test [1] is 4.3 µM. In the case of `COc1cc(O)c2c3c1-c1c(O)cccc1[C@@H]1Oc4ccccc4[C@@H](CC2=O)[C@@H]31` [OHIOENSIN C], the IC50 in test [1] was determined as 7.6 µM. What is called Ki is the dissociation constant of the complex between target and ligand, obtained from inhibition or displacement. As for `O=C1C[C@]2(O)c3ccccc3O[C@H]3c4cc(O)ccc4-c4c(O)cc(O)c1c4[C@@H]32` [OHIOENSIN F], in test [1], the IC50 was 3.5 µM. For the same molecule, the Ki in test [2] was 1.5 µM. With `O=C1c2c(O)cc(O)c3c2[C@@H]2[C@@H](c4ccccc4O[C@H]2c2cccc(O)c2-3)[C@H]1O` [OHIOENSIN G], the IC50 in test [1] is 5.6 µM.
